Paper PMC4526662, “A Pyranose-2-Phosphate Motif Is Responsible for Both Antibiotic Import and Quorum-Sensing Regulation in Agrobacterium tumefaciens” (PLoS Pathogens, 2015)
Several values for one entry are separate records, joined by “and”; a condition that tells them apart may be missing. Equal values may be shown once. Entries after “also recorded” stand apart in the source; their conditions may differ.

Columns and labels:
AccA [1] = molecular target: T1, AccA (Agrobacterium fabrum, UniProt Q52012); test: biochemical; type: binding, Agrobacterium tumefaciens C58; details: for fluorescence intensity / autofluorescence signal change on incubating AccA with ligand: tryptophan fluorescence, excitation 295 nm, emission 335 nm
Procedure: Ligand binding to the protein AccA was investigated using tryptophan fluorescence spectroscopy, a method exploiting significant conformational changes accompanying the binding.
All experiments were performed at 22°C in 3 x 15 mm quartz cuvettes using Cary Eclypse spectrofluorometer (Varian) in 25 mM Tris-HCl pH 8.0 and 150 mM NaCl with a fixed amount of proteins (2 μM) and increasing concentrations of ligand. […] The data were analysed using Origin 7 software and fitted to the equation f = ΔFluorescencemax*abs(x)/(K D+abs(x)).

AccA [2] = molecular target: T1, AccA; test: AccA isothermal titration microcalorimetry; type: binding, Agrobacterium tumefaciens C58; details: for binding to AccA detected by microcalorimetry / TΔS / ΔG / ΔH / N (binding stoichiometry) / K (association binding constant): ITC; for K (association binding constant): Ka in M-1
Procedure: (§1) Isothermal titration microcalorimetry experiments were performed with an ITC200 isothermal titration calorimeter from MicroCal (GE Healthcare). The experiments were carried out at 20°C for AccA and 25°C for AccR. […] For agrocin 84 experiment, we inverted the protein and ligand positions: the ligand was in the cell and the protein in the syringe. This strategy was chosen to overcome the small amount of agrocin 84. The experimental data were fitted to theoretical titration curves with software supplied by MicroCal (ORIGIN). This software uses the relationship between the heat generated by each injection and ΔH (enthalpy change in Kcal.Mol-1), Ka (the association binding constant in M-1), n (the number of binding sites), total protein concentration and free and total ligand concentrations.
Target sequence in this assay (Q52012 entry or part of it): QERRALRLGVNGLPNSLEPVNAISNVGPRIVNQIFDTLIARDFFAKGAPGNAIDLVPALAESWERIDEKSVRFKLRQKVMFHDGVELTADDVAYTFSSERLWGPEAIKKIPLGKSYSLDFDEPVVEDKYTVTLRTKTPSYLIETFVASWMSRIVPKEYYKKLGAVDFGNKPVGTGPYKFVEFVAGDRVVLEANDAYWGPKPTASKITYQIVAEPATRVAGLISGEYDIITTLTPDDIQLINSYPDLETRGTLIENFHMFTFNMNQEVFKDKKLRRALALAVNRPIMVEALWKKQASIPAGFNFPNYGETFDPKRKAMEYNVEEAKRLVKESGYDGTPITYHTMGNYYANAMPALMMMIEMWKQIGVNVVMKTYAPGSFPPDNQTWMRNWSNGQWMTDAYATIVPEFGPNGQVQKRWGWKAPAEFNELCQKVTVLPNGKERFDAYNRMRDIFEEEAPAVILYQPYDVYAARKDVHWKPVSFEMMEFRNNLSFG

AccR = molecular target: T2, AccR (Agrobacterium fabrum, UniProt P32104); test: AccR isothermal titration microcalorimetry; type: binding, Agrobacterium tumefaciens C58
T2 construct: 6-His tag (C); made in house; host or cells: E. coli C41
Procedure: The question arose about their biological role in A. tumefaciens, especially in relation to regulation of the AccR/quorum-sensing pathway that controls dissemination of the Ti plasmid. We first measured the affinity of the synthetic agrocinopine A towards purified recombinant AccR by isothermal titration microcalorimetry.
as §1

A. tumefaciens C58 [3] = test: Quantification of OC8HSL quorum-sensing signal in cell cultures; type: cell-based, Agrobacterium tumefaciens; details: 1 mM compound
Procedure: (§2) In complementation assay, the accF wild-type gene was cloned into p6000 [50] plasmid and electroporated into the accF mutant. Rifampicin-resistant recipient strain C58.00 was derived from A. tumefaciens C58 cured of the At and Ti plasmids. A. tumefaciens was cultivated at 28°C in AB minimal medium containing ammonium chloride (1 g/L) and mannitol (2 g/L), or in Luria-Bertani modified medium (LBm; NaCl 5 g/L). The antibiotics gentamycin and rifampicin were added at 25 μg/mL and 100 μg/mL, respectively.
(§3) Overnight LBm cultures of recipient (C58.00) and donor (C58 control) cells were mixed in an equal ratio (1:1). 10 μl of this mix were transferred into 140 μl of AB medium supplemented with mock or 1 mM of agrocinopine A, L-arabinose-2-phosphate and glucose-2-P for static liquid cultures of 24, 48, 72 and 96 hours. Suspension dilutions of these cultures were spotted onto selective agar media to enumerate the different bacterial populations (donor, recipient and Ti plasmid transconjugants). In parallel, to quantify OC8HSLs, aliquots of cell cultures were spotted onto TLC plates (RP-18/UV254, Macherey-Nagel) and incubated with the OC8HSL-bioindicator strain A. tumefaciens NT1(pZLR4) as previously described. Tested samples were compared with a calibration curve obtained with pure OC8HSL (Sigma-Aldrich).

A. tumefaciens C58 [4] = test: Ti plasmid conjugation assay; type: cell-based, Agrobacterium tumefaciens; details: for Ti plasmid transconjugants: C58 control donor with recipient C58.00, 1 mM compound; for Ti plasmid conjugation: 1 mM compound
Procedure: as §2, §3

A. tumefaciens C58 [5] = test: Uptake assay: growth with compound as sole carbon source; type: cell-based, Agrobacterium tumefaciens; details: 1 mM in AB media, OD600 monitored for 48 hours
Procedure: This experiment confirmed that the transporter can uptake bulky synthetic molecules such as agrocinopine 3’-O-benzoate into the cell as observed for the toxin agrocin 84, which is also a relatively large molecule.
A single colony of Agrobacterium tumefaciens C58 with pTiC58 derivative pTi::Gm was grown overnight at 28°C in AB media supplemented with mannitol (2 g/L) and gentamicin 25 μg.ml-1. 20 ml of AB media in presence of a carbon source (agrocinopine 3’-O-benzoate or L-arabinose-2-phosphate at a final concentration of 1 mM) or in absence of any carbon source and supplemented with gentamicin (25 μg.ml-1) were inoculated at an initial OD600 of 0.03 and the OD was monitored for 48 hours.

[6] = molecular target: AccR, master transcriptional regulator (transcriptional repressor of the DeoR family) of Agrobacterium tumefaciens C58 (Agrobacterium tumefaciens C58); test: native gel or EMSA; native gel electrophoresis of purified recombinant AccR in solution; conditions not given, no figure or methods section for this gel
[7] = AccA 2 μM, 22°C, 25 mM Tris-HCl pH 8.0, 150 mM NaCl, one binding site model, ND: no signal detected, read-out: apparent KD (autofluorescence titration)
[8] = accF mutant complemented with accF wild type (p6000)

T2 sequence (P32104 whole entry): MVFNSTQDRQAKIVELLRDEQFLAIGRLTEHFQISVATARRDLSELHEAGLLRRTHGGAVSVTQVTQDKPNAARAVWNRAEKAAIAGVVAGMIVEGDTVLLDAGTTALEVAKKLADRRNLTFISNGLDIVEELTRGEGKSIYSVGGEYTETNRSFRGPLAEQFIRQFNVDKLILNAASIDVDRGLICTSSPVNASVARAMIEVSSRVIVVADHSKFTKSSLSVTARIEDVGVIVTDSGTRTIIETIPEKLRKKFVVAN
Chain of AccR, master transcriptional regulator (transcriptional repressor of the DeoR family) of Agrobacterium tumefaciens C58 (natural protein) (O30540 whole entry): as the sequence (P32104 whole entry) above

Compound	fluorescence intensity / autofluorescence signal change on incubating AccA with ligand (AccA [1])	Kd (AccA [2])	TΔS (AccA [2]; 20°C)	ΔG (AccA [2]; 20°C)	ΔH (AccA [2]; 20°C)	N (binding stoichiometry) (AccA [2]; 20°C, one binding site model)	K (association binding constant) (AccA [2]; 20°C)	also measured
O=P(O)(O)O[C@H]1C(O)O[C@H](CO)[C@@H](O)[C@@H]1O (stereo partly drawn)								Kd (AccA [1]): 2.5 µM
OC1OC[C@H](O)[C@H](O)[C@H]1O (mixture of isomers) [L-arabinose, reference compound]	No fluorescence intensity change							binding to AccA detected by microcalorimetry (AccA [2]): No signal detected; also recorded: could not detect any binding
CC(C)OP(=O)(O)O[C@H]1C(O)OC[C@H](O)[C@@H]1O (stereo partly drawn) [L-arabinose-2-isopropylphosphate]		2.2 ± 0.58 µM	-8E3 cal/mol/K	-7.6 kcal/mol	-1.56E4 ± 493 cal/mol	1.08 ±0.03	4.72E5 ± 1.2E5	Kd (AccA [1]; [7]): 4.79 ± 0.6 µM
O=C[C@H](OP(=O)(O)O)[C@@H](O)[C@@H](O)CO [L-arabinose-2-phosphate]		1.33 ± 0.12 µM	-3.2E3	-7.9 kcal/mol	-1.11E4 ± 168 cal/mol	0.95 ± 0.01	7.54E5 ±6.5E4	Kd (AccA [1]; [7]): 2.93 ± 0.66 µM; Kd (AccR): 0.11 ± 0.06 µM; n1 (stoichiometry, first step) (AccR; ITC, 25°C): 0.4; n2 (stoichiometry, second step) (AccR; ITC, 25°C): 0.9; accumulation of quorum-sensing molecules (A. tumefaciens C58 [3]; accF defective mutant): still observed; Ti plasmid transconjugants (A. tumefaciens C58 [4]): could also be detected; Ti plasmid conjugation (A. tumefaciens C58 [4]; accF defective mutant donor): still activated
Nc1ncnc2c1ncn2[C@@H]1O[C@H](COP(=O)(O)O)[C@@H](O)[C@H]1O [adenosine monophosphate, reference compound]								binding to AccA detected by microcalorimetry (AccA [2]): could not detect any binding
O=C(OC1C(OP(=O)(O)OC2C(O)OCC(O)C2O)C(CO)OC1(CO)OC1OC(CO)C(O)C(O)C1O)c1ccccc1 (stereo not drawn) [agrocinopine 3’-O-benzoate]		7.5 ± 2.2 µM	3.2E3	-6.9 kcal/mol	-3.7E3 ± 374 cal/mol	0.99 ± 0.06	1.33E5	Kd (AccA [1]; apparent KD (autofluorescence titration), AccA 2 μM, 22°C, 25 mM Tris-HCl pH 8.0, 150 mM NaCl, one binding site model, ND: no signal detected): 5.88 ± 1.6 µM; fold lower affinity with AccA in comparison with agrocinopine A (AccA [2]; ITC KD values): 25 fold; bacterial growth with compound as sole carbon source (A. tumefaciens C58 [5]): used as nutrient by the bacteria as indicated by bacterial growth
O=P(O)(OC1C(O)OCC(O)C1O)OC1C(CO)OC(CO)(OC2OC(CO)C(O)C(O)C2O)C1O (stereo not drawn) [agrocinopine A]		0.3 ± 0.03 µM	-2.6E3	-8.6 kcal/mol	-1.12E4 ± 98 cal/mol	1 ± 0.006	2.99E6 ± 2.9E5	Kd (AccA [1]; [7]): 1.32 µM and 1.3 µM; affinity towards purified recombinant AccR (AccR; ITC): no affinity was detected; accumulation of quorum-sensing molecules (A. tumefaciens C58 [3]; accF defective mutant): abolished; accumulation of quorum-sensing molecules (A. tumefaciens C58 [3]; [8]): restored; Ti plasmid transconjugants (A. tumefaciens C58 [4]): could also be detected; Ti plasmid conjugation (A. tumefaciens C58 [4]; accF defective mutant donor): abolished; Ti plasmid conjugation (A. tumefaciens C58 [4]; [8]): restored
O=P(O)(O)O[C@H]1O[C@H](CO)[C@@H](O)[C@H](O)[C@H]1O [glucose-1-phosphate, reference compound]	no autofluorescence signal changes							
O=C[C@H](O)[C@@H](O)[C@H](O)[C@H](O)COP(=O)(O)O [glucose-6-phosphate, reference compound]	no autofluorescence signal changes							
AccR, master transcriptional regulator (transcriptional repressor of the DeoR family) of Agrobacterium tumefaciens C58 (natural protein)								stoichiometry N [6]: 2
agrocin 84 [reference compound]	no signal was measured		-3.6E4	-7.7 kcal/mol	-43.7 ± 3.8 kcal/mol	0.8 ± 0.043	6.83E5 ± 1.8E5	Kd (AccA [2]; 20°C, one binding site model, read-out: mean KD (isothermal titration microcalorimetry)): 1.5 ± 0.41 µM
phosphate [reference compound]	No fluorescence intensity change							
